Here are results for one compound from US8828997B2, “2,3-dihydro-1H-imidazo(1,2-a)pyrimidin-5-one derivatives, preparation thereof, and pharmaceutical use thereof” (Sanofi, priority 2009, dated 2014).

Each structure is given as a SMILES string. pIC50: −log10 of the molar value.

In the assay the test system is AKT protein phosphorylated on serine 473 (pAKT-S473) in PC3 human prostate carcinoma cells. The assay can be described thus: pAKT expression in PC3 human prostate carcinoma cells measured by western blotting (test A). The class given is cell-based. As to conditions: PC-3, 1 to 2 h incubation, absolute IC50. Here is the method: The inhibitory activity of the molecules on AKT phosphorylation is measured either by western blotting using the technique described below, or by the MSD Multi-spot Biomarker detection technique from Meso Scale Discovery also described below.
Study of pAKT Expression in PC3 Human Prostate Carcinoma Cells Measured by Western Blotting (test A):
This test is based on measuring the expression of the AKT protein phosphorylated on serine 473. The phosphorylation of AKT (pAKT) is measured by western blotting in the PC3 human prostate carcinoma line (ATCC CRL-1435), using an antibody that specifically recognises pAKT-S473.
On day 1, the PC3 cells are seeded into 6-well plates (TPP, #92006) at the concentration of 0.8×10^6 cells/well in 1800 μl of DMEM medium (DMEM Gibco #11960-044) containing 10% of foetal calf serum (SVF Gibco, #10500-056) and 1% glutamine (L-Glu Gibco #25030-024), and incubated at 37° C., 5% CO2, overnight.
On day 2, the cells are incubated in the presence or absence of the test products for 1 to 2 hours at 37° C. in the presence of 5% CO2. The molecules, diluted in dimethyl sulphoxide (DMSO Sigma #D2650), are added from a 10-times concentrated stock solution, the final percentage of DMSO being 0.1%. The molecules are tested either at a single concentration of less than or equal to 10 μM, or at increasing concentrations in a range that can extend from less than 1 nM to 10 μM.
After this incubation, the cells are lysed for the preparation of the proteins. After the culture medium has been drawn off, the cells are rinsed with 1 ml of PBS (DPBS Gibco, #14190-094), recovered by scraping in 200 μl of complete HNTG buffer and transferred into a 96-well plate (Greiner #651201), and lysed for 1 h on ice. The HNTG buffer is composed of the following mixture: 50 mM hepes, 150 mM NaCl, 1% triton, 10% glycerol, with extemporaneous addition of one Mini Protease Inhibitor Cocktail tablet (Roche 1836153) and of one Phosphatase Inhibitor Cocktail tablet (Roche104906837001) per 10 ml of buffer.
The lysate is centrifuged for 10 min at 6000 rpm. 155 μl of supernatant are recovered. 150 μl are incubated for denaturation for 5 min at 95° C. in the presence of 4× NuPAGE LDS Sample Buffer diluted 4-fold (InVitrogen ref NP0007) and of 10× NuPAGE Sample Reducing Agent diluted 10-fold (InVitrogen ref NP0009). These samples are then frozen at −20° C. 5 μl are assayed by the microBCA technique according to the technical bulletin of the MicroBCA Protein Assay Kit (Pierce #23235).
For protein separation, 20 μg of proteins are loaded on to a NU-PAGE 4-12% Bis Tris Gel 12 well (InVitrogen ref NP0322BOX) and the migration is carried out for 1 h 30 in 20× NU-PAGE MOPS SDS Running Buffer diluted 20-fold (InVitrogen ref NP0001), at 150 volts.
The gel is then transferred on to an Invitrolon PVDF membrane (Invitrogen #LC2007) permeabilised before and after a few seconds in ethanol (Ethanol Fischer Scientific #E/0600DF/15).
The transfer is carried out in a Biorad tank at 30 volts overnight or at 60 volts for 3 hours, in the presence of 20× NUPAGE Transfer Buffer diluted 20-fold (InVitrogen ref NP0006).
The membrane is then saturated in saturating solution composed of TBS (10× Tris Buffered Saline, Sigma #T5912, diluted 10-fold), 0.1% Tween 20 (Sigma #P5927) and 3% BSA (Bovine Albumin Serum Fraction V, Sigma #A4503) for 6 h after overnight transfer or else for 1 h after transfer for a period of 3 h.
The primary antibodies are diluted to 1/1000 for the anti-phospho AKT-Ser473 antibody (1931-12, rabbit monoclonal, cat#4058 from Cell Signaling Technology Abcam), in saturating solution composed of PBS, 0.1% Tween 20 and 3% BSA, and then shaken overnight at 4° C.
Two rinses for 5 min in washing solution composed of TBS and 0.1% Tween 20 are carried out before hybridisation of the secondary antibodies. […]

In turn, `COc1ccc(CCN2c3nc(N4CCOCC4)cc(=O)n3C[C@@]2(C)C(F)(F)F)cc1` [Example 1, (S)-1-[2-(4-Methoxyphenyl)ethyl]-2-methyl-7-morpholin-4-yl-2-trifluoromethyl-2,3-dihydro-1H-imidazo[1,2-a]pyrimidin-5-one] gave a pIC50 of 7.00.

What is called pIC50 is the negative decadic logarithm of the IC50, by convention in mol/L. Read a low pIC50 as a high IC50.
